This is an account of results in US20250177418A1, “NEUROACTIVE STEROIDS FOR TREATMENT OF GASTROINTESTINAL DISEASES OR CONDITIONS” (Sage Therapeutics, Inc., priority 2022, published 2025).

The subject of series [1] is participants with major depressive disorder (MDD). As to the kind of experiment: Treatment-emergent adverse events (safety), study NCT04476030. Conditions: one patient, approximately 1 hour after Compound (1) 50 mg on Day 7. It is filed as in vivo, human. On the procedure:
A randomized, double-blind, parallel-group, active/placebo-controlled study (NCT04476030) in participants with major depressive disorder (MDD) was conducted. The study evaluated the efficacy and safety of Compound (1) 50 mg co-initiated with standard-of-care (SOC) antidepressant therapies (ADTs) (Compound (1)+ADT) vs placebo co-initiated with SOC ADT (placebo+ADT) in adults with MDD. Patients were randomized 1:1 to once-daily, blinded Compound (1)+ADT or placebo+ADT for 14 days then continued open-label SOC ADT for 28 more days.
An AE could therefore be any unfavorable and unintended sign (including an abnormal laboratory finding), symptom or disease temporally associated with the use of a medicinal (investigational) product whether or not related to the medicinal (investigational) product. In clinical studies, an AE could include an undesirable medical condition occurring at any time, including baseline or washout periods, even if no study treatment had been administered.
A treatment emergent adverse event (TEAE) was defined as an AE with onset after the start of investigational product (IP; Compound (1) or placebo), or any worsening of a pre-existing medical condition/AE with onset after the start of IP and throughout the study. The term IP included any Sage IP, a comparator, or a placebo administered in a clinical study. […]

Series [2] concerns patients with major depressive disorder. The following applies: MDD patients, meta-analysis; cited from earlier work.
For series [3] the following is noted: cited from earlier work.

`C[C@@]1(O)CC[C@H]2[C@H](CC[C@@H]3[C@@H]2CC[C@]2(C)[C@@H](C(=O)Cn4cc(C#N)cn4)CC[C@@H]32)C1` [Compound (1), 1-(2-((3R,5R,8R,9R,10S,13S,14S,17S)-3-hydroxy-3,13-dimethylhexadecahydro-1H-cyclopenta[a]phenanthren-17-yl)-2-oxoethyl)-1H-pyrazole-4-carbonitrile]: in series [1], the “Investigator-assessed relationship of serious TEAE (seizure-like phenomena) to study drug” value is reported as “related”.
Consider `COc1ccc2cccc(CCNC(C)=O)c2c1` [agomelatine], for which the “Rates of gastrointestinal adverse reactions compared to placebo” value (“Rates … compared to placebo” for short) in series [2] is listed as “higher rates”.
As to `CC(NC(C)(C)C)C(=O)c1cccc(Cl)c1` (centres unmarked) [bupropion], in series [2], the “Rates … compared to placebo” value is “higher rates”.
Consider `CN(C)CCCC1(c2ccc(F)cc2)OCc2cc(C#N)ccc21` (centres unmarked) [citalopram], for which the “Rates … compared to placebo” value in series [2] is on record as “higher rates”.
In the case of `CN(C)CC(c1ccc(O)cc1)C1(O)CCCCC1` (centres unmarked) [desvenlafaxine], the “Rates … compared to placebo” value in series [2] was “higher rates”.
For the compound `CNCC[C@H](Oc1cccc2ccccc12)c1cccs1` [duloxetine], the “Rates … compared to placebo” value in series [2] is “higher rates”.
For the compound `CN(C)CCC[C@@]1(c2ccc(F)cc2)OCc2cc(C#N)ccc21` [escitalopram], in series [2], the “Rates … compared to placebo” value is recorded as “higher rates” and the “Tolerability on the gastrointestinal tract among antidepressants” value is “least tolerated”.
As for `CNCCC(Oc1ccc(C(F)(F)F)cc1)c1ccccc1` (centres unmarked) [fluoxetine], in series [2], the “Rates … compared to placebo” value is on record as “higher rates”.
For `COCCCC/C(=N\OCCN)c1ccc(C(F)(F)F)cc1` [fluvoxamine], in series [2], the “Rates … compared to placebo” value is “higher rates”.
Turning to `CCN(CC)C(=O)[C@@]1(c2ccccc2)C[C@H]1CN` [levomilnacipran], the “Rates … compared to placebo” value in series [2] is listed as “higher rates”.
With `CN1CCN2c3ncccc3Cc3ccccc3C2C1` (centres unmarked) [mirtazapine], in series [2], the “Rates … compared to placebo” value is on record as “higher rates”.
Consider `Fc1ccc([C@@H]2CCNC[C@H]2COc2ccc3c(c2)OCO3)cc1` [paroxetine], for which, in series [2], the “Rates … compared to placebo” value is “higher rates”.
Regarding `CCOc1ccccc1OC(c1ccccc1)C1CNCCO1` (centres unmarked) [reboxetine], the “Rates … compared to placebo” value in series [2] is reported as “higher rates”.
With `CN[C@H]1CC[C@@H](c2ccc(Cl)c(Cl)c2)c2ccccc21` [sertraline], in series [3] (compared to other SSRIs and venlafaxine), the Incidence of diarrhea result was “higher incidence”. In series [2], the “Rates … compared to placebo” value was “higher rates” and the “Tolerability on the gastrointestinal tract among antidepressants” value is recorded as “least tolerated”.
Consider `COc1ccc(C(CN(C)C)C2(O)CCCCC2)cc1` (centres unmarked) [venlafaxine], for which the “Rates of nausea and vomiting” value in series [3] (compared to SSRIs and duloxetine) was “higher rates”. The “Rates … compared to placebo” value in series [2] is “higher rates”.
In the case of `Cc1ccc(Sc2ccccc2N2CCNCC2)c(C)c1` [vortioxetine], the “Rates … compared to placebo” value in series [2] is “higher rates”.
